According to paper PMC4685510, “A Cell Biologist’s Field Guide to Aurora Kinase Inhibitors” (Frontiers in Oncology, 2015):

What was measured:
Assay in all cases: biochemical
Format in all cases: biochemical
[1] = molecular target: T1, 363 human kinases (including Aurora A/B/C) (Homo sapiens, UniProt P29320); conditions: EPHA3, [ATP] 50 µM; for remaining activity at 0.1 µM: 100 nM; for remaining activity at 0.1 µM / remaining activity at 0.5 µM: read-out: % Enzyme Activity (relative to DMSO controls)
T1 sequence (P29320 21-983): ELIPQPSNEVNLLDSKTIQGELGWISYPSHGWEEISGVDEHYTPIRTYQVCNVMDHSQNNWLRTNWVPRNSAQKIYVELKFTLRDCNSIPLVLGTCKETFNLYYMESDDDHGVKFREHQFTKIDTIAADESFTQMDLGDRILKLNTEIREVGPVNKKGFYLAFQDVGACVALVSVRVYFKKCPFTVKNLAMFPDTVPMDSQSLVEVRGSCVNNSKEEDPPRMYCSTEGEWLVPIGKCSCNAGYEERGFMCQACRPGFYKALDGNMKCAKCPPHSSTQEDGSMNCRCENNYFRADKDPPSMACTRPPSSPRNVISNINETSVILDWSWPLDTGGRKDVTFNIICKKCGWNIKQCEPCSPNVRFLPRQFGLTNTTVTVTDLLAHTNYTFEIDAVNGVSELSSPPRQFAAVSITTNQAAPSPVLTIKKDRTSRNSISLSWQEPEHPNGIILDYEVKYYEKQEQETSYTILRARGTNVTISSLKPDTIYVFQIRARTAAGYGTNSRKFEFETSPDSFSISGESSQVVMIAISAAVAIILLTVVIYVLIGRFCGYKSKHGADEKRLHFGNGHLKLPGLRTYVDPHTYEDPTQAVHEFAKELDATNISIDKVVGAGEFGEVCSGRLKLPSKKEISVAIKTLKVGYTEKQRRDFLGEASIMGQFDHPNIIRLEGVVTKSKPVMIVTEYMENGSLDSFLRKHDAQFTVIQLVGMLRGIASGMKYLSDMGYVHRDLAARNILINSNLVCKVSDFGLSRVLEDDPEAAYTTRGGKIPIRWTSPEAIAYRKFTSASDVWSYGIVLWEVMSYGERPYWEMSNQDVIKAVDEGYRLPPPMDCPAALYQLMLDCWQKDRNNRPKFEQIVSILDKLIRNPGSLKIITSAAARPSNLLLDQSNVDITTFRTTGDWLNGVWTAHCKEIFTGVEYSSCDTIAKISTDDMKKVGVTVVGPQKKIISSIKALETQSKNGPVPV
Excerpt: (§1) However, the Aurora A/B selectivity ratios derived from our in vitro and in vivo data can be compared to prioritize inhibitors.

[2] = molecular target: T2, 363 human kinases (including Aurora A/B/C) (Homo sapiens, UniProt P42680); conditions: TEC; for remaining activity at 0.1 µM: 100 nM; for remaining activity at 0.1 µM / remaining activity at 0.5 µM: read-out: % Enzyme Activity (relative to DMSO controls)
T2 sequence (P42680 1-631): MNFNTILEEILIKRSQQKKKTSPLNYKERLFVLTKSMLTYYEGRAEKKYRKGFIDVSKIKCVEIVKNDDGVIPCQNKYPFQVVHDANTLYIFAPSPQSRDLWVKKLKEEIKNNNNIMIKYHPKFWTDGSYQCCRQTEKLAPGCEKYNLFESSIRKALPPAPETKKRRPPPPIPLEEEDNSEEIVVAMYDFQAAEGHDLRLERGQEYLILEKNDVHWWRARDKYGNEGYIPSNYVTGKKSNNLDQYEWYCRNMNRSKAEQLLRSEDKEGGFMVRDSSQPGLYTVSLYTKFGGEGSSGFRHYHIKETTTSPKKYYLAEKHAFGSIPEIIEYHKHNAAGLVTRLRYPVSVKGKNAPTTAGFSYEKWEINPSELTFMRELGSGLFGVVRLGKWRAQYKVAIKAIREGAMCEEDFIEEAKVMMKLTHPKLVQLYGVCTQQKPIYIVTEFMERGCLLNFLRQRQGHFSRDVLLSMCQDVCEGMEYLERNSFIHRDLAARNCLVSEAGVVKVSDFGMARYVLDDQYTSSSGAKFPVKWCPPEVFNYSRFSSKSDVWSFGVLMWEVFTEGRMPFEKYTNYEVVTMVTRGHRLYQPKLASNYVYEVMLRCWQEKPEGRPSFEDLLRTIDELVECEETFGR
Excerpt: as §1

[3] = molecular target: T3, 363 human kinases (including Aurora A/B/C) (Homo sapiens, UniProt Q92630); conditions: DYRK2, [ATP] 5 µM; for remaining activity at 0.1 µM: 100 nM; for remaining activity at 0.1 µM / remaining activity at 0.5 µM: read-out: % Enzyme Activity (relative to DMSO controls)
T3 sequence (Q92630 1-601): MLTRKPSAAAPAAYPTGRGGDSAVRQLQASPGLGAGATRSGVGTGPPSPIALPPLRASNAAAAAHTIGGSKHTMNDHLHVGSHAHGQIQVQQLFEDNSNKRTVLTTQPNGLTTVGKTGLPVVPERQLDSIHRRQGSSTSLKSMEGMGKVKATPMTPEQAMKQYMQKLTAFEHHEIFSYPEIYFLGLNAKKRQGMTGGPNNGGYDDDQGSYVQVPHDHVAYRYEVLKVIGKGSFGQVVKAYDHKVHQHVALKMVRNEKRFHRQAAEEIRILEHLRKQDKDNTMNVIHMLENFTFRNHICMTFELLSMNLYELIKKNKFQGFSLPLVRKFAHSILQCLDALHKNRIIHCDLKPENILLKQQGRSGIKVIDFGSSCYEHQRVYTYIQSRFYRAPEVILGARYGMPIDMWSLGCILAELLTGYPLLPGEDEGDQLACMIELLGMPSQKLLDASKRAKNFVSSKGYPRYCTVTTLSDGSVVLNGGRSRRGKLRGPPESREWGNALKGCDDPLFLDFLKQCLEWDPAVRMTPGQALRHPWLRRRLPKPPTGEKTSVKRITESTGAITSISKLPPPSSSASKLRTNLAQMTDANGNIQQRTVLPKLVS
Excerpt: as §1

CCn1cc(-c2ccnc3[nH]c(-c4cccc(CN(C)C)c4)cc23)c(-c2ccc(NC(=O)N(C)C)cc2)n1 [GSK1070916]
remaining activity at 0.1 µM [1]: 93.1% | remaining activity at 0.1 µM [2]: 100% | remaining activity at 0.1 µM [3]: 108%

O=C(O)[C@]1(Cc2cccc(Nc3nccs3)n2)CC[C@@H](Oc2cccc(Cl)c2F)CC1 [MK-5108]
remaining activity at 0.1 µM [1]: 67.4% | remaining activity at 0.5 µM ([1]; 500 nM): 31.4% | remaining activity at 0.1 µM [2]: 68.8% | remaining activity at 0.5 µM ([2]; 500 nM): 40.6% | remaining activity at 0.1 µM [3]: 82% | remaining activity at 0.5 µM ([3]; 500 nM): 56.2%

O=C(c1cccc(Cl)c1F)N1CCN(Cc2cccc(Nc3nccs3)n2)CC1 [MK-8745]
% Enzyme Activity (relative to DMSO controls) ([1]; 500 nM): 84.89% | remaining activity at 0.5 µM ([1]; 500 nM): 85.5% | % Enzyme Activity (relative to DMSO controls) ([2]; 500 nM): 100.04% | remaining activity at 0.5 µM ([2]; 500 nM): 102% | % Enzyme Activity (relative to DMSO controls) ([3]; 500 nM): 138.31% | remaining activity at 0.5 µM ([3]; 500 nM): 147%
